Patent US20240325369A1 (priority 2021, published 2024)
Values joined by “and” are separate entries in the source; they are usually repeats but may differ in a detail not shown here. Identical values can stand only once. Like-named read-outs stand apart in the source and are kept apart here.

Tested on: metastatic castration-resistant prostate cancer (mCRPC) with DNA-repair anomalies
Conditions: for CTC Response (CTC = 0 at week 8), % of subjects / CTC Response (CTC = 0 at week 8), number of subjects: ITT with baseline CTC >0 (N=131)
Protocol: The planned sample size was approximately 120 subjects with measurable disease who were biomarker-positive (approximately 75 subjects with DNA repair anomalies in BRCA [BRCA1 or BRCA2] and approximately 45 subjects with biallelic DNA-repair anomalies in non-BRCA [ATM, FANCA, PALB2, CHEK2, BRIP1, or HDAC2]).
Efficacy objectives were evaluated for subjects meeting the biomarker selection criteria described in the protocol. All subjects were monitored for safety during the study period, and up to 30 days after the last dose of study drug. Treatment continued until disease progression, unacceptable toxicity, death, or termination of the study by the sponsor.
Diagnosis and Main Criteria for Inclusion: The target population consisted of male subjects over the age of 18 years with mCRPC and DNA-repair anomalies (biallelic mutations and germline pathogenic mutations only for BRCA1 or BRCA2 mutations) who had received at least 1 prior taxane-based chemotherapy and at least 1 prior AR targeted therapy (second-generation or later). Subjects were asked to provide a tumor tissue sample (archival or recently collected, if available), and a blood sample for analysis of DNA-repair anomalies using a sponsor-validated assay.
Criteria for Evaluation: Efficacy assessments included chest, abdomen, and pelvis CT or MRI scans and whole-body bone scans (^99mTc) to evaluate objective response and disease progression.
The primary endpoint was ORR and summarized for the BRCA analysis set along with the 95% 2-sided exact CI. In addition, the counts and percentage of subjects in each response category (CR. PR, etc.) were tabulated. ORR in non-BRCA subjects was analyzed in the same way.
Descriptive summaries of CTC response were generated for BRCA and non-BRCA analysis sets, measurable and non-measurable subgroups and tabulated with its 2-sided 95% exact CI. Waterfall plots of percent change in CTC were also presented, showing the percentage change in CTC counts from baseline to 8 weeks, as well as maximal CTC count declines. All time to event secondary endpoints were evaluated using Kaplan-Meier method for BRCA and non-BRCA analysis sets. Median time to event and the corresponding 95% CI were provided. Descriptive summaries were provided for BRCA and non-BRCA analysis sets.
Time to degradation was determined using the following meaningful change threshold values: FACT-P Total (10-point reduction from baseline), EQ-5D-5L Index (0.09-point reduction from baseline). EQ-5D-5L VAS (10-point reduction from baseline), and BPI SF worst pain intensity item (30% reduction from baseline).
The primary endpoint was ORR, defined as the proportion of subjects with BRCA DNA-repair anomalies and measurable disease whose best response was either CR or PR as defined by RECIST 1.1 (Eisenhauer et al 2009) and who had no evidence of bone progression according to the PCWG3 criteria (Scher et al 2016).
ORR final analysis was performed approximately 6 months from Cycle 1 Day 1 of the last subject with a BRCA DNA-repair anomaly and measurable disease. Objective response as determined by investigator assessment was considered as the primary analysis.
Subjects who discontinued the study without a response assessment were considered as non-responders in the analysis. The objective response rate was calculated and its 2-sided 95% exact CI presented. In addition, the counts and percentage of subjects in each response category (CR, PR, etc.) were tabulated.
The following analyses of CTC response were performed for BRCA and non-BRCA analysis sets, measurable and non-measurable subgroups: • Descriptive summaries • CTC response rate was tabulated with its 2-sided 95% exact CI
All time to event secondary endpoints were evaluated using Kaplan-Meier method for BRCA and non-BRCA analysis sets. Median time to event and the corresponding 95% CI were provided. Descriptive summaries were provided for BRCA and non-BRCA analysis sets.

[1] = BRCA, ITT (N=142), Kaplan-Meier, 300 mg once daily
[2] = BRCA, 300 mg once daily, listed as niraparib
[3] = BRCA, measurable ITT (N=76), 300 mg once daily
[4] = BRCA, measurable ITT responders (N=26), 300 mg once daily
[5] = BRCA, measurable ITT responders (N=26), Kaplan-Meier, 300 mg once daily
[6] = BRCA, patients with baseline CTC ≥5 (n=117), 300 mg once daily
[7] = NON-BRCA, ITT (N=81), 300 mg once daily
[8] = NON-BRCA, measurable ITT responders (N=5), 300 mg once daily
[9] = NON-BRCA, measurable ITT responders (N=5), Kaplan-Meier, 300 mg once daily
[10] = Non-BRCA (n = 81), 300 mg once daily
[11] = Non-BRCA, patients with baseline CTC ≥5 (n=60), 300 mg once daily

## NC(=O)c1cccc2cn(-c3ccc([C@@H]4CCCNC4)cc3)nc12 [Niraparib, 2-[4-[(3S)-piperidin-3-yl]phenyl]-2H-indazole-7-carboxamide]
[1]
  Time to PSA progression: time to event, Median: 5.13 months
  Time to radiographic progression: time to event, 25th percentile: 4.76 months
  Time to radiographic progression: time to event, 75th percentile: 11.63 months
  Time to symptomatic skeletal event (SSE): time to event, Median: 13.80 months
  Time to symptomatic skeletal event: time to event, 25th percentile: 7.52 months
  rPFS: time to event, 25th percentile: 4.44 months
  rPFS: time to event, 75th percentile: 11.56 months
BRCA, 300 mg once daily
  CTC Response (CTC = 0 at week 8), % of subjects: (23.7%)
  CTC Response (CTC = 0 at week 8), number of subjects: 31
[2]
  CTC Response (CTC = 0 at week 8), % of subjects: (23.7) %
  CTC Response (CTC = 0 at week 8), number of subjects: 31/131
BRCA, as printed in Table 13, 300 mg once daily
  DOR, median (range): 6.28 mo
[3]
  Best Overall Response: Complete Response (CR), % of subjects: 2.6%
  Best Overall Response: Complete Response (CR), number of subjects: 2
  Best Overall Response: Not Available (NA), % of subjects: 9.2%
  Best Overall Response: Not Available (NA), number of subjects: 7
  Best Overall Response: Partial Response (PR), % of subjects: 31.6%
  Best Overall Response: Partial Response (PR), number of subjects: 24
  Best Overall Response: Progressive Disease (PD), % of subjects: 21.1%
  Best Overall Response: Progressive Disease (PD), number of subjects: 16
  Best Overall Response: Stable Disease (SD), % of subjects: 35.5%
  Best Overall Response: Stable Disease (SD), number of subjects: 27
  ORR (objective response rate, RECIST 1.1, no bone progression per PCWG3), % of subjects: 34.2%
  ORR (objective response rate, RECIST 1.1, no bone progression per PCWG3), number of subjects: 26
  Objective response confirmed: Complete Response (CR), % of subjects: 2.6%
  Objective response confirmed: Complete Response (CR), number of subjects: 2
  Objective response confirmed: Partial Response (PR), % of subjects: 31.6%
  Objective response confirmed: Partial Response (PR), number of subjects: 24
[4]
  Duration of objective response: 6-month event-free rate: 0.464
  Duration of objective response: 12-month event-free rate: 0.000
  Duration of objective response: 18-month event-free rate: 0.000
  Duration of objective response: 24-month event-free rate: 0.000
  Duration of objective response: Censored, % of subjects: (23.1%)
  Duration of objective response: Censored, number of subjects: 6
  Duration of objective response: Event, % of subjects: (76.9%)
  Duration of objective response: Event, number of subjects: 20
[5]
  Duration of objective response: time to event, 25th percentile: 3.75 months
  Duration of objective response: time to event, 75th percentile: 7.20 months
  Duration of objective response: time to event, Median: 5.55 months
[6]
  CTC conversion (CTC count ≥5/7.5 mL blood at baseline to <5/7.5 mL blood at nadir), % of subjects: 47.0%
  CTC conversion (CTC count ≥5/7.5 mL blood at baseline to <5/7.5 mL blood at nadir), number of subjects: 55
[7]
  Time to PSA progression: 12-month event-free rate: 0.000
  Time to PSA progression: 18-month event-free rate: 0.000
[8]
  Duration of objective response: 6-month event-free rate: 0.500
  Duration of objective response: 18-month event-free rate: 0.000
  Duration of objective response: 24-month event-free rate: 0.000
  Duration of objective response: Censored, % of subjects: (20.0%)
  Duration of objective response: Censored, number of subjects: 1
  Duration of objective response: Event, % of subjects: (80.0%)
  Duration of objective response: Event, number of subjects: 4
[9]
  Duration of objective response: time to event, 25th percentile: 2.96 months
  Duration of objective response: time to event, 75th percentile: 6.95 months
  Duration of objective response: time to event, Median: 5.16 months
[10]
  CRR (composite response rate), % of subjects: 14.8%
  CRR (composite response rate), number of subjects: 12
  PSA50 (≥50% decline in prostate-specific antigen), % of subjects: 4.9%
  PSA50 (≥50% decline in prostate-specific antigen), number of subjects: 4
[11]
  CTC conversion (CTC count ≥5/7.5 mL blood at baseline to <5/7.5 mL blood at nadir), % of subjects: 15.0%
  CTC conversion (CTC count ≥5/7.5 mL blood at baseline to <5/7.5 mL blood at nadir), number of subjects: 9
In vivo
  Best Overall Response: Complete Response (CR), number of subjects: 0
  Best Overall Response: Not Available (NA), % of subjects: (17.0%)
  Best Overall Response: Not Available (NA), number of subjects: 8
  Best Overall Response: Partial Response (PR), % of subjects: (10.6%)
  Best Overall Response: Partial Response (PR), number of subjects: 5
  Best Overall Response: Progressive Disease (PD), % of subjects: (31.9%)
  Best Overall Response: Progressive Disease (PD), number of subjects: 15
  Best Overall Response: Stable Disease (SD), % of subjects: (40.4%)
  Best Overall Response: Stable Disease (SD), number of subjects: 19
  Duration of objective response: 12-month event-free rate: 0.000
  Objective response confirmed: Complete Response (CR), number of subjects: 0
  Objective response confirmed: Partial Response (PR), % of subjects: 5 (10.6%)
  Objective response confirmed: Partial Response (PR), number of subjects: 5 (10.6%)
  Overall survival: 6-month event-free rate: 0.841 and 0.709 and 0.793
  Overall survival: 12-month event-free rate: 0.564 and 0.413 and 0.508
  Overall survival: 18-month event-free rate: 0.334 and 0.198 and 0.278
  Overall survival: 24-month event-free rate: 0.152 and 0.111 and 0.136
  Overall survival: time to event, 25th percentile: 8.31 months and 4.86 months and 7.16 months
  Overall survival: time to event, 75th percentile: 19.52 months and 16.53 months and 19.42 months
  Time to PSA progression: 6-month event-free rate: 0.144
  Time to PSA progression: 24-month event-free rate: 0.000
  Time to PSA progression: Censored, % of subjects: (51.9%)
  Time to PSA progression: Censored, number of subjects: 57 and 42
  Time to PSA progression: Event, % of subjects: (48.1%)
  Time to PSA progression: time to event, 25th percentile: 2.79 months
  Time to PSA progression: time to event, 75th percentile: 4.63 months and 8.31 months
  Time to PSA progression: time to event, Median: 3.65 months
  Time to radiographic progression: 6-month event-free rate: 0.299
  Time to radiographic progression: Censored, % of subjects: (34.6%)
  Time to radiographic progression: Censored, number of subjects: 28
  Time to radiographic progression: Event, number of subjects: 53
  Time to radiographic progression: time to event, 25th percentile: 1.87 months
  Time to radiographic progression: time to event, 75th percentile: 8.11 months
  Time to symptomatic skeletal event (SSE): time to event, Median: 10.35 months
  Time to symptomatic skeletal event: 6-month event-free rate: 0.792
  Time to symptomatic skeletal event: 12-month event-free rate: 0.379
  Time to symptomatic skeletal event: 18-month event-free rate: 0.190
  Time to symptomatic skeletal event: Censored, % of subjects: (76.5%)
  Time to symptomatic skeletal event: Censored, number of subjects: 62
  Time to symptomatic skeletal event: time to event, 25th percentile: 6.51 months
  Time to symptomatic skeletal event: time to event, 75th percentile: 15.54 months
  rPFS: 6-month event-free rate: 0.289
  rPFS: Censored, % of subjects: (29.6%)
  rPFS: Censored, number of subjects: 24
  rPFS: Event, % of subjects: (70.4%)
  rPFS: Event, number of subjects: 57
  rPFS: time to event, 25th percentile: 1.87 months
  rPFS: time to event, 75th percentile: 6.47 months
